Results taken from patent publication US20120208809A1, “9H-PYRROLO[2,3-B: 5,4-C'] DIPYRIDINE AZACARBOLINE DERIVATIVES, PREPARATION THEREOF, AND THERAPEUTIC USE THEREOF” (SANOFI, priority 2009, published 2012).

How the values were obtained:
Pim-2 = molecular target: T1, Pim-2 (Homo sapiens, UniProt Q9P1W9); assay: TR-FRET assay of Pim kinase activity (phosphorylation of Bad Ser112), Pim-2; assay type: biochemical; conditions: ATP 40 μM, read-out: IC50 Pim2
T1 construct: full-length human recombinant His6-labelled Pim-1, Pim-2 or Pim-3 protein; His6; made in house
T1 sequence (Q9P1W9 whole entry): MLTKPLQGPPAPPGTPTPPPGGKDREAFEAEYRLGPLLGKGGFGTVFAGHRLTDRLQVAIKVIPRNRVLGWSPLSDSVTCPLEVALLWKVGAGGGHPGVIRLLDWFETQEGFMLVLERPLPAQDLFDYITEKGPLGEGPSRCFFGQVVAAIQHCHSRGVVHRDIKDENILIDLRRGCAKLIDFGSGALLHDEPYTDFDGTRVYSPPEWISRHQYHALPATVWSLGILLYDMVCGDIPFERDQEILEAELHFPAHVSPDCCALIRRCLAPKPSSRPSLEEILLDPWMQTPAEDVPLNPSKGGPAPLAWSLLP
Outline: (§1)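 Full-length His6-tagged human Pim-1, -2 or -3 phosphorylate full-length His6-Bad at 40 μM ATP; phospho-Ser112 detected by TR-FRET (Eu anti-phosphoBad, APC anti-His6), 665/615 nm ratio. Compounds run at 10 concentrations in duplicate, typically top 30 μM; IC50 from 4-parameter logistic fit.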

Pim-3 = molecular target: T2, Pim-3 (Homo sapiens, UniProt Q86V86); assay: TR-FRET assay of Pim kinase activity (phosphorylation of Bad Ser112), Pim-3; assay type: biochemical; conditions: ATP 40 μM, read-out: IC50 Pim3
T2 construct: full-length human recombinant His6-labelled Pim-1, Pim-2 or Pim-3 protein; His6; made in house
Outline: as §1

MOLM-13 = assay: Cell viability assay (CellTiter-Blue), MOLM-13; assay type: cell-based; conditions: Homo sapiens, read-out: EC50 MOLM-13 μM, MOLM-13 cells, read-out: EC50 MOLM-13 μM (myeloma)
Procedure: The representative compounds of the invention are also screened as regards their effects on cell proliferation and viability, using a variety of tumoral cell lines of human source, representative of different pathological indications. These cell lines include:
In order to measure the viability, the tumour cells are incubated in 96-well or 384-well format for 48, 72 or 96 hours, preferably 72 hours, with a compound of the invention at dilutions of a factor 3, with, in general, nine doses in total, the highest dose being equal to 10 μM or 30 μM. The cell viability is evaluated by adding CellTiter-Blue® (Promega, Madison, Wis., United States) for 4 hours and endpoint readings are taken using a SpectraMax Genmini EM plate reader (Molecular Devices, Sunnyvale, Calif., United States). The CellTiter-Blue® cell viability assay measures the ability of the cells in culture to reduce resazurin to resorufin, the intensity of the fluorescence signal being directly proportional to the number of live cells. The EC50 represents the concentration of compound that leads to a 50% reduction of the viability/proliferative expansion of the cells.

phosphoBAD (JEKO) = assay: Level of phosphorylation of Bad by ELISA, JEKO cell line; assay type: cell-based; conditions: Homo sapiens, JEKO cells, 3 hours at 37° C.
Procedure: (§2) The activity of the molecules is evaluated on the JEKO or DND-41 cell line by measuring the level of phosphorylation of Bad and the total Bad content, via the ELISA technique.
(§3) The JEKO or DND-41 cells are resuspended at a concentration of 500 000 cells per ml. The cells are then diluted in RPMI-1640 medium containing 20% foetal calf serum. 225 μl of cells are placed in a plate. Serial dilutions of the molecules are then performed (8 points, three-fold dilution, range started at 10 mM). Each dilution point is then diluted to 1/100 in medium. Next, 25 μl of each of the concentrations are added to the cells and then incubated for 3 hours at 37° C.
(§4) 100 μl of the cells are transferred into a plate treated with poly-D-Lysine. The plate is then incubated for 5-10 minutes at 37° C. and then centrifuged for 5 minutes at 1500 rpm. A volume of 100 μl of 8% fixing solution (solution of formaldehyde in PBS buffer) is added to each of the wells. After covering with a self-adhesive film and a lid, the plate is incubated for 20 minutes at room temperature and then stored at 4° C. overnight.
(§5) Next, the liquid is removed and two successive washes are performed with washing buffer. 100 μl of quenching buffer are added, followed by incubating for 15 minutes at room temperature. After washing, 100 μl of […] at room temperature. After washing, 50 μl of primary antibody diluted to 1/250 for pBAD (Cell Signaling Cat#5284) and to 1/500 for Bad (MBL Cat#591) are added to each of the plates. Each plate is incubated for 2 hours at room temperature. After two washes, 50 μl of secondary antibody (diluted to 1/16) are added to the pBAD plate (tebu-bio ref; FE-021) and 50 μl of the HRP-conjugated IgG secondary antibody (Santa Cruz Cat #SC-2004; diluted to 1/1000) are added to the Bad plate. Incubation for 1 hour at room temperature is performed. Four washes with the washing solution are performed, followed by three washes with PBS. Finally, 100 μl of the developing solution are added, followed by incubation for 10 minutes. Finally, 100 μl of the quenching solution are added, before reading at 450 nm.

CDK1 = CDK1 (Homo sapiens, UniProt P06493); assay: Biochemical results, IC50 CDK1
Chain of CDK1 (P06493 whole entry, species assumed): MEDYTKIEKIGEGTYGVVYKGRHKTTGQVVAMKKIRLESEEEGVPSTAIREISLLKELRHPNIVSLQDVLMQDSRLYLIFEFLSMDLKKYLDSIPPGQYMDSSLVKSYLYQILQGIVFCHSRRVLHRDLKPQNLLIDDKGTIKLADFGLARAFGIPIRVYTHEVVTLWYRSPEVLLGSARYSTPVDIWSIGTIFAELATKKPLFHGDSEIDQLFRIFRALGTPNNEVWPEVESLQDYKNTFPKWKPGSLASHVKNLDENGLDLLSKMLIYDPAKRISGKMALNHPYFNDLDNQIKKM
Chain of CDK1 (P14635 whole entry partner, species assumed): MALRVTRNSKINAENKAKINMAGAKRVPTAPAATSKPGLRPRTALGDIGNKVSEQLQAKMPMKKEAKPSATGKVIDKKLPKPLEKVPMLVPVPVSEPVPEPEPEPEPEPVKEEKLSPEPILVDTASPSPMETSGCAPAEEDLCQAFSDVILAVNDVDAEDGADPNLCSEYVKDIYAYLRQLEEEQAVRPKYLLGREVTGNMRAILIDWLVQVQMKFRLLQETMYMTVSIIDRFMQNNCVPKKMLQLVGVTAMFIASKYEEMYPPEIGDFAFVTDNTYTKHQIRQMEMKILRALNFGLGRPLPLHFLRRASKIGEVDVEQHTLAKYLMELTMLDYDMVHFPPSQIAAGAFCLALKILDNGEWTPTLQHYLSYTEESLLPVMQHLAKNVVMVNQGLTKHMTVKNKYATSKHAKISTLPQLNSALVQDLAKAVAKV

phosphoBAD (DND-41) = assay: Level of phosphorylation of Bad by ELISA, DND-41 cell line; assay type: cell-based; conditions: Homo sapiens, DND41, DND-41 cells, 3 hours at 37° C.
Procedure: as §2, §3, §4, §5

EOL-1 = assay: Cell viability assay (CellTiter-Blue), EOL-1; assay type: cell-based; conditions: Homo sapiens, EOL1, read-out: EC50 EOL-1 μM (eosinophilic leukaemia), EOL-1 cells, read-out: EC50 EOL-1 μM (lymphoma);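 also: EOL-1 is an acute myeloid eosinophilic leukaemia line not a lymphoma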
Outline: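 Cells exposed 48, 72 or 96 h (preferably 72 h) to nine 3-fold dilutions, top dose 10 μM or 30 μM. Viability read by resazurin-to-resorufin fluorescence after 4 h CellTiter-Blue; EC50 is concentration giving 50% reduction in viability/proliferative expansion.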

PLK1 = PLK1 (Homo sapiens, UniProt P53350); assay: Biochemical results, IC50 PLK1
Chain of PLK1 (P53350 whole entry, species assumed): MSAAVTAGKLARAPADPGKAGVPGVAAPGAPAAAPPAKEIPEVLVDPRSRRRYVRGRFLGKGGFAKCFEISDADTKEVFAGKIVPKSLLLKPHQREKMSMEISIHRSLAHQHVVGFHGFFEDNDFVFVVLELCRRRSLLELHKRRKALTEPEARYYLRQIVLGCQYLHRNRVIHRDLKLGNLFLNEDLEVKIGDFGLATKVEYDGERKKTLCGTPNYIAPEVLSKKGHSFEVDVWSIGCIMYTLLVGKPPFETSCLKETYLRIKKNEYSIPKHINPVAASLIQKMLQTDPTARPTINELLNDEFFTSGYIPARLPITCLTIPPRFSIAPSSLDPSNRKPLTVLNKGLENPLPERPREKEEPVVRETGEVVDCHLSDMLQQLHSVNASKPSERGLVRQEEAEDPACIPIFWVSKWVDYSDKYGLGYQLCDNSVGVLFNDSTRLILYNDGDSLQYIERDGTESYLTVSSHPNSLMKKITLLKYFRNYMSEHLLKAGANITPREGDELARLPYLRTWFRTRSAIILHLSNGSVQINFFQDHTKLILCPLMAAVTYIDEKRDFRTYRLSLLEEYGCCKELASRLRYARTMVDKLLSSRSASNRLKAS

MV4-11 = assay: Cell viability assay (CellTiter-Blue), MV4-11; assay type: cell-based; conditions: Homo sapiens, read-out: EC50 MV4-11 μM (acute myeloid leukemia), MV4-11 cells, read-out: EC50 MV4-11 μM (myeloma)
Outline: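 MOLM-13 or MV4-11 cells incubated 48, 72 or 96 h (preferably 72 h) with nine 3-fold compound dilutions, top dose 10 μM or 30 μM. Viability read by CellTiter-Blue resazurin reduction over 4 h (fluorescence). EC50 is the concentration giving 50% reduction of viability/proliferative expansion.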

Pim-1 = molecular target: T3, Pim-1 (Homo sapiens, UniProt P11309); assay: TR-FRET assay of Pim kinase activity (phosphorylation of Bad Ser112), Pim-1; assay type: biochemical; conditions: ATP 40 μM, read-out: IC50 Pim1
T3 construct: full-length human recombinant His6-labelled Pim-1, Pim-2 or Pim-3 protein; His6; made in house
T3 sequence (P11309 whole entry): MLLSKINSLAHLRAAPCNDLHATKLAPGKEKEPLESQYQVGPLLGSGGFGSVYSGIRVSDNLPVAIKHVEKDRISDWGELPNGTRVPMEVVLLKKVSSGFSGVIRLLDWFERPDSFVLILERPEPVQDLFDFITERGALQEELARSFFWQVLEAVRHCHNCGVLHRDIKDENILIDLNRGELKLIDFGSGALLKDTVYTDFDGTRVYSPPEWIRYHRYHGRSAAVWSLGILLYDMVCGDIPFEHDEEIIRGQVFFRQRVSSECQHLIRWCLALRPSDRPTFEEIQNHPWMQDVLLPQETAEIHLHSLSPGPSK
Outline: as §1

Row | IC50 (Pim-2) [nM] | IC50 (Pim-3) [nM] | EC50 (MOLM-13) [nM] | IC50 (phosphoBAD (JEKO)) [nM] | IC50 (CDK1) [nM] | IC50 (phosphoBAD (DND-41)) [nM] | IC50 (PLK1) [nM] | EC50 (MV4-11) [nM] | IC50 (Pim-1) [nM] | SMILES | EC50 (EOL-1) [nM]
1 | < 100 | < 100 | 100 to 1000 | 100 to 1000 | 100 to 1000 | 1000 to 5000 | 100 to 1000 | < 100 | < 100 | CN(C)CCNC(=O)c1ccc(-c2c(F)cnc3[nH]c4cnc(-c5cccnc5)cc4c23)cc1 [Example 9, N-[2-(dimethylamino)ethyl]-4-[3-fluoro-6-(pyridin-3-yl)-9H-pyrrolo-[2,3-b:5,4-c′]dipyridin-4-yl]benzamide] | < 100
2 | < 100 | < 100 | – | 100 to 1000 | 100 to 1000 | 100 to 1000 | 100 to 1000 | < 100 | < 100 | CN(C)CCNC(=O)c1ccc(-c2ccnc3[nH]c4cnc(-c5cnn(C)c5)cc4c23)cc1 [Example 44] | < 100
